Laboratory results: patent publication US20230391775A1, “SUBSTITUTED DIARYLAMINE COMPOUND, PHARMACEUTICAL COMPOSITION THEREOF, PREPARATION METHOD THEREFOR, AND USE THEREOF” (SUZHOU YABAO PHARMACEUTICAL R&D CO., LTD., priority 2020, published 2023)

Tests used:
LRRK2 G2019S = LRRK2 G2019S (Homo sapiens (Human), UniProt Q5S007, G2019S); experiment: Adapta kinase assay (LRRK2_IC50 assay); format: biochemical; details: Adapta TR-FRET, 1 h, room temperature
Experimental: In the Adapta™ kinase assay method (LRRK2_IC50 assay): the kinase reaction buffer contained kinase buffer S (Life Technologies, PV5213) and 2 mM DTT (Life Technologies, P2325). The kinases LRRK2 G2019S protein (PV4881) and ERM (LRRKtide, PV5093) were derived from Life Technologies. The Adapta™ universal kinase assay kit (Life Technologies, PV5099) contained the following components: Adapta™ Eu-anti-ADP antibody (PV5097; 4 μg); 10 μM AlexaFluor®647 ADP tracer (PV5098; 200 pmol); TR-FRET dilution buffer (PV3574; 100 mL); kinase quench buffer (P2825; 1 mL); 10 mM ATP (PV3227; 500 μL); and 10 mM ADP (PV5096; 500 μL). LRRK2-IN-1 (1234480-84-2, HY-10875) was derived from MedChem Express.
Adapta™ Kinase Assay Method
Adapta® universal kinase assay method is a uniform fluorescence-based immunoassay for detecting ADP. In contrast to ATP consumption assay, Adapta® assay method was very sensitive to ADP formation, with most signal changes occurring when initially 10-20% ATP was converted to ADP. This made Adapta® universal kinase assay method very suitable for low-activity kinases.
All assays were performed at room temperature (about 21° C.) and were linearly related to time and enzyme concentration under the conditions used. 1× kinase reaction buffer was prepared from 5× kinase buffer S stock solution (listed above), and 10 mL of 1× kinase reaction buffer was prepared by the addition of 2 mL of 5× stock solution to 8 mL of H2O. To the 1× kinase reaction buffer was added 20 μL of 1 M DTT.
A kinase reaction was performed in a low-volume 384-well plate in a volume of 10 μL. Typically, a Greiner plate was used (Catalog #3674 #, low volume, white wall, 784075). Other untreated assay plates that were not tested could also be suitable. The substrate concentration in the assay was 100 μM, and the 1× kinase reaction buffer consisted of 50 mM Tris-HCl (pH 8.5), 10 mM MgCl2, 1 mM EGTA, 0.01% Brij-35 and 2 mM DTT, as well as any other additives that could be necessary for the particular kinase. The kinase reaction was allowed to proceed for 1 h at room temperature, followed by the addition of a formulation of kinase quenching buffer (EDTA; 30 mM), Eu-labeled antibody (6 nM), and tracer (18.9 nM) in TR-FRET dilution buffer (5 μL). The final concentration of the antibody in the assay wells was 2 nM, the final concentration of the tracer was 6.3 nM, and the final concentration of EDTA was 10 mM. The plate was allowed to equilibrate at room temperature for at least 30 min and then read on a plate reader configured for Adapta™ TR-FRET.
The data provided in this document were generated by using BMG LABTECH PHERAstar plate reader and using appropriate filters and instrument settings for Adapta™. Test compounds were screened in wells with 1% DMSO (final). For 8-point titration, a 5-fold serial dilution was made on the basis of a starting concentration.

[1] = Drug tissue distribution assay: plasma pharmacokinetics; format: in vivo; details: mice, single oral intragastric 30 mg/kg
Experimental: (§1) Test sample: compound 4, purity 99%
(§2) Preparation of test sample: 22.73 mg of compound 4 was weighed and placed in a mortar (according to the purity of 99%), and a small amount of 0.5% CMC-Na was added followed by full grinding. The mixture was then transferred to a container; the mortar was washed for 4 times; the washing solution was transferred to the container, followed by the addition of 0.5% CMC-Na until the volume of the reaction solution was 30 mL; and then a test sample suspension with a concentration of […] was prepared. The suspension was stirred with a magnetic stirrer at a rotation speed of 1200 rpm for at least 15 min prior to sampling for analysis and administration, with fresh preparation just prior to use.
(§3) Route of administration: oral intragastric administration
(§4) Frequency and dose of administration: single administration at 30 mg/kg (40 mL/kg)
(§5) After drug administration, 0.4 mL of blood was collected from the heart of each group of animals at corresponding time points of 0.25 h, 0.5 h, 1 h, 2 h, 4 h, 6 h, 8 h, and 24 h, respectively, the animals were anesthetized by intraperitoneal injection of 50 mg/kg Zoletil, and then put to death by bleeding. The brain, lung, and kidney of each animal were taken out, washed with normal saline, dried off with filter paper, and put into a cryopreservation tube. The cryopreservation tube was temporarily placed in dry ice, and stored at −60° C. or below for 12 h.
(§6) The collected blood was anticoagulated with EDTA-K2, then temporarily placed in wet ice, and then centrifuged for 10 min at 4° C. and at 2600 g within 2 h. The plasma was temporarily placed in dry ice, and stored in a refrigerator at −60° C. or below within 14 h.
(§7) Analytical method: The drug concentrations in plasma and brain tissue were measured by the following LC-MS/MS method. • Instrument: Shimadzu LC-MS/MS (Model: LCMS-8060); • Chromatographic column: GL Sciences Inc., InertSustain, C18, 3 μm, 2.1×50 mm; • Ion detection: positive ion mode, m/z 453.10/338.05; • Mobile phase A: aqueous solution containing 0.1% TFA; mobile phase B: methanol solution containing 0.1% TFA;
(§8) Pharmacokinetic parameter evaluation index: pharmacokinetic parameters were calculated in a non-compartmental model using WinNonlin 6.4.

[2] = Drug tissue distribution assay: brain tissue pharmacokinetics / blood-brain barrier permeability; format: in vivo; details: mice, single oral intragastric 30 mg/kg
Experimental: as §1, §2, §3, §4, §5, §6, §7, §8

LRRK2 G2019S, sequence (Q5S007 whole entry G2019S): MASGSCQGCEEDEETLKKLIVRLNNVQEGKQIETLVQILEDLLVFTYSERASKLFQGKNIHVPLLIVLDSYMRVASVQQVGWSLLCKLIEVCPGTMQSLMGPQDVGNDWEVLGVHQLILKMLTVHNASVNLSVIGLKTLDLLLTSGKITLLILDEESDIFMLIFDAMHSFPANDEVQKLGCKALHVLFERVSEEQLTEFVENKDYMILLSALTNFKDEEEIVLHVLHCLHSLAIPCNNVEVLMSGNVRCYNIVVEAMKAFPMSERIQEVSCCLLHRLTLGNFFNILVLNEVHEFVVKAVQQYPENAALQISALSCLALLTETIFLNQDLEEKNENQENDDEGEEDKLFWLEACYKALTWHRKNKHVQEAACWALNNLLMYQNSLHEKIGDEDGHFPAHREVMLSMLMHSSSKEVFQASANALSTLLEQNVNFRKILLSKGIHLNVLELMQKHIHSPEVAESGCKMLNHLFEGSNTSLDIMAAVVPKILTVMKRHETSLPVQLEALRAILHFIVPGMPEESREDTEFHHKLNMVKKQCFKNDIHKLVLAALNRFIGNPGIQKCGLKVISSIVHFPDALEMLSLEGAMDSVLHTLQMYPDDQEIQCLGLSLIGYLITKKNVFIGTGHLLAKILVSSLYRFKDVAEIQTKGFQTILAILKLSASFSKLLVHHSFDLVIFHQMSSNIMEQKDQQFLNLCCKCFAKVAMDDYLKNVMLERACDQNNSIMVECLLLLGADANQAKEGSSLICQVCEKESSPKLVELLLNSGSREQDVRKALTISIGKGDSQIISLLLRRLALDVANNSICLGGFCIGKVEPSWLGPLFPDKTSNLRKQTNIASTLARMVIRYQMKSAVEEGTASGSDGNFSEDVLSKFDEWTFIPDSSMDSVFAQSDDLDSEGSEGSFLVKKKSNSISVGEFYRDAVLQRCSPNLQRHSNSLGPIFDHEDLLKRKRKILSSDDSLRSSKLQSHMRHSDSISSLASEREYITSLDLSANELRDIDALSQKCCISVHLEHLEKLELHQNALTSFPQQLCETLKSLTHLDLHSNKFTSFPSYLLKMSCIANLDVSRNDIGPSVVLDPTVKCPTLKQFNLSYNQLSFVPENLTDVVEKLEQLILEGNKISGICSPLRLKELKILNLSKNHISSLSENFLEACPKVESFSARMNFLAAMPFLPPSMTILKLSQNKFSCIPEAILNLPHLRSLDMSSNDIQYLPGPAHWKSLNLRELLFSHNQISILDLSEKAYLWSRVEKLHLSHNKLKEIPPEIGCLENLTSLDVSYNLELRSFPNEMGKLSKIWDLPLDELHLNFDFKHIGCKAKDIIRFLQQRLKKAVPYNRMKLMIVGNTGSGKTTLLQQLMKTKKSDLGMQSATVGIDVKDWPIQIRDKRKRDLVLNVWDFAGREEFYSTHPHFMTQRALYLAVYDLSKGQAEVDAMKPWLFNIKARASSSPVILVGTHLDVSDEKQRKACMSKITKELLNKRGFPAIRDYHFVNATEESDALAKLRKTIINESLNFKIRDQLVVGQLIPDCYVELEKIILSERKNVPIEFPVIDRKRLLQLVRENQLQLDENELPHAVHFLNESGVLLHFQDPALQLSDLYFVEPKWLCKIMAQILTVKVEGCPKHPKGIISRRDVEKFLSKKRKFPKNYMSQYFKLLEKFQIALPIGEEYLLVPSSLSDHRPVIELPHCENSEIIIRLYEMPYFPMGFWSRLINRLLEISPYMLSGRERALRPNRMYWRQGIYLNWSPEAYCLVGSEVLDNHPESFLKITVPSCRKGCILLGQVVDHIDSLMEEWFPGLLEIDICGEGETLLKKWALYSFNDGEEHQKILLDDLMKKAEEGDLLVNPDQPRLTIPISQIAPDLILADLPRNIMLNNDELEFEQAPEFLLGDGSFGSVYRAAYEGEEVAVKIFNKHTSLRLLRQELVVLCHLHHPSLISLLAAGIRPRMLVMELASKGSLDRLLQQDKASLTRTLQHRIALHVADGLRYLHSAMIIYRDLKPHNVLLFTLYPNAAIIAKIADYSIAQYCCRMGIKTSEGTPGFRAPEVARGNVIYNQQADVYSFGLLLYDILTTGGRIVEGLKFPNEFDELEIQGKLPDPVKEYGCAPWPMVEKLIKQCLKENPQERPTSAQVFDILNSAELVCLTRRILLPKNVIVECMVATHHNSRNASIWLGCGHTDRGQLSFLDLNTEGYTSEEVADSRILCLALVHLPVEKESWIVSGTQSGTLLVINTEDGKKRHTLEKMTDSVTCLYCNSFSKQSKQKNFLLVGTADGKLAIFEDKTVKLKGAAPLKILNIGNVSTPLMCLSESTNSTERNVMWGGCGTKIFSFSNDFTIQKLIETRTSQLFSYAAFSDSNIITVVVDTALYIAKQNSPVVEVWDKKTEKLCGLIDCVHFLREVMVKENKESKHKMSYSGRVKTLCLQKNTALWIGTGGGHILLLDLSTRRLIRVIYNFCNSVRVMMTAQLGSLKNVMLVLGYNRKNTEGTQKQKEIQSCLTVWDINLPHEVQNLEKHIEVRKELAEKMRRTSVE

Row | Structure (SMILES) | IC50 (LRRK2 G2019S) [nM] | further results
1 | CCOc1nc(Nc2ccc(C(N3CCOCC3)C(F)(F)F)cc2OC)nc2[nH]ccc12 (single isomer, unassigned) [Compound 4, 4-ethoxy-N-(2-methoxy-4-(2,2,2-trifluoro-1-morpholinoethyl)phenyl)-7H-pyrrolo[2,3-d]pyrimidin-2-amine] | 17 | AUC0-t [1]: 3248 ng · h · mL^−l; AUC0-∞ [1]: 3257 ng · h · mL^−l; Cmax [1]: 597 ng · mL^−l; Kel [1]: 0.247 h^−l; CL/F ([1]; mouse): 154 mL/min/kg; Tmax ([1]; mouse): 1 h; half-life ([1]; mouse): 2.8 h; MRT last ([1]; mouse, read-out: MRT0-t): 4.5 h; MRT inf ([1]; mouse, read-out: MRT0-∞): 4.56 h; Vd/F ([1]; mouse, read-out: Vz/F): 37.3 L/kg; AUC0-t ([2]; brain tissue): 6457 ng · h · g^−l; AUC0-∞ ([2]; brain tissue): 7409 ng · h · g^−l; Cmax ([2]; brain tissue): 1898 ng · g^−l; blood-brain barrier permeability ([2]; result in words): excellent blood-brain barrier permeability; Kp ([2]; mouse, brain / plasma, read-out: AUCbrain/AUCplasma): ~2; Tmax ([2]; mouse, brain tissue): 1 h
2 | CCOc1nc(Nc2ccc(C(N3CCOCC3)C(F)(F)F)cc2CC)nc2[nH]ccc12 (single isomer, unassigned) [Compound 25] | 141 | –
3 | CCOc1nc(Nc2ccc(C(N3CCOCC3)C(F)(F)F)cc2CC)nc2[nH]ccc12 (single isomer, unassigned) [Compound 26] | 70 | –
4 | COc1cc(C(N2CCOCC2)C(F)(F)F)ccc1Nc1nc(OCCO)c2cc[nH]c2n1 (single isomer, unassigned) [Compound 27] | 5 | –
5 | COc1cc(C(N2CCOCC2)C(F)(F)F)ccc1Nc1nc(OCCO)c2cc[nH]c2n1 (single isomer, unassigned) [Compound 28] | 5 | –
6 | CCOc1nc(Nc2ccc(C(N3CCN(C)CC3)C(F)(F)F)cc2OC)nc2[nH]ccc12 (single isomer, unassigned) [Compound 29] | 12 | –
7 | CCOc1nc(Nc2ccc(C(N3CCN(C)CC3)C(F)(F)F)cc2OC)nc2[nH]ccc12 (single isomer, unassigned) [Compound 30] | 22 | –
8 | CCOc1nc(Nc2ccc(C(N3CCN4CCC[C@@H]4C3)C(F)(F)F)cc2OC)nc2[nH]ccc12 (single isomer, unassigned) [Compound 31] | 64 | –
9 | CCOc1nc(Nc2ccc(C(N3CCN4CCC[C@@H]4C3)C(F)(F)F)cc2OC)nc2[nH]ccc12 (single isomer, unassigned) [Compound 32] | 27 | –
10 | CCOc1nc(Nc2ccc(C(N3C[C@H]4C[C@@H]3CO4)C(F)(F)F)cc2OC)nc2[nH]ccc12 (single isomer, unassigned) [Compound 33] | 10 | –
11 | CCOc1nc(Nc2ccc(C(N3C[C@H]4C[C@@H]3CO4)C(F)(F)F)cc2OC)nc2[nH]ccc12 (single isomer, unassigned) [Compound 34] | 8 | –
12 | CCOc1nc(Nc2ccc(C(C)(N3CCOCC3)C(F)(F)F)cc2OC)nc2[nH]ccc12 (single isomer, unassigned) [Compound 35, 4-ethoxy-N-(2-methoxy-4-(1,1,1-trifluoro-2-morpholinopropan-2-yl)phenyl)-7H-pyrrolo[2,3-d]pyrimidin-2-amine] | 275 | –
13 | CCOc1nc(Nc2ccc(C3(N4CCOCC4)CC3)cc2OC)nc2[nH]ccc12 [Compound 3, 4-ethoxy-N-(2-methoxy-4-(1-morpholinocyclopropyl)phenyl)-7H-pyrrolo[2,3-d]pyrimidin-2-amine] | 7 | –
14 | CCOc1nc(Nc2cc(F)c(C3(N4CCOCC4)CC3)cc2OC)nc2[nH]ccc12 [Compound 36] | 38 | –
15 | CNc1nc(Nc2cc(F)c(C3(N4CCOCC4)CC3)cc2OC)ncc1C(F)(F)F [Compound 37] | 34 | –
16 | COc1cc(C2(N3CCOCC3)CC2)c(F)cc1Nc1nc(OC)c2cc[nH]c2n1 [Compound 38] | 25 | –
